# Assays:
# [1] = biological target: human Gal-1 (hGal-1) (Homo sapiens, UniProt P09382); experiment: Competitive binding assay: biotinylated hGal-1 to microplate-adsorbed asialofetuin (ASF); settings: Activities on hGal-1; binding to ASF-coated plates, 3 hours at 4° C.; mean values; read-out: Gal-1 IC50
# Summary of the method: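 Plate-adsorbed asialofetuin is incubated 3 h at 4 °C with biotinylated hGal-1, optionally its all-serine-substituted cysteine variant, plus compound dilutions. ABTS color after 1 h streptavidin-peroxidase (80 ng/mL) at 4 °C reports binding. Reported IC50 is a mean across repeat runs.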
# [2] = biological target: human Gal-3 (hGal-3) (Homo sapiens (Human), UniProt P17931); experiment: Competitive binding assay: biotinylated hGal-3 to microplate-adsorbed asialofetuin (ASF); settings: Activity on hGal-3; binding to ASF-coated plates, 3 hours at 4° C.; mean values
# Summary of the method: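 Biotinylated hGal-3 (300-1000 ng/mL) binding to plate-adsorbed asialofetuin, with DMSO-diluted compound added, incubated 3 h at 4 °C. After washing, bound protein detected with streptavidin-peroxidase (80 ng/mL, 1 h, 4 °C) and ABTS substrate, read spectrophotometrically. IC50 given as mean of several measurements.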
# human Gal-3 (hGal-3), sequence (P17931 whole entry): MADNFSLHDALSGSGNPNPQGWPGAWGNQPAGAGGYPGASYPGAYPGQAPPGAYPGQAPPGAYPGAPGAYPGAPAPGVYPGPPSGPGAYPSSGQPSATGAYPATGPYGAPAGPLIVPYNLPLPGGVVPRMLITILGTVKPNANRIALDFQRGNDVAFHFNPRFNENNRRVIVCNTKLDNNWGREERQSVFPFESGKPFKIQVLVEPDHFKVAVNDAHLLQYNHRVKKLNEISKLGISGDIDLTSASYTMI
# human Gal-1 (hGal-1), sequence (P09382 2-135 limits assumed): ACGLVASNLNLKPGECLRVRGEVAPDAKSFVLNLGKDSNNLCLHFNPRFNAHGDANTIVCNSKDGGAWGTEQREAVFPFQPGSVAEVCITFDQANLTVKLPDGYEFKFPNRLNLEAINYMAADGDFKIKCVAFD
SMILES,IC50 [1] [nM],IC50 [2] [nM]
"COC(=O)CO[C@@H]1[C@@H](n2cc(-c3cc(F)c(F)c(F)c3)nn2)[C@@H](O)[C@@H](CO)O[C@@H]1CC1=NOC2(CCCCC2)C1 [Example 1.68, methyl 2-(((2R,3R,4S,5R,6R)-2-((1-oxa-2-azaspiro[4.5]dec-2-en-3-yl)methyl)-5-hydroxy-6-(hydroxymethyl)-4-(4-(3,4,5-trifluorophenyl)-1H-1,2,3-triazol-1-yl)tetrahydro-2H-pyran-3-yl)oxy)acetate]",3700,220
"CO[C@@H]1[C@@H](n2cc(-c3ccc(Cl)c(F)c3F)nn2)[C@@H](O)[C@@H](CO)O[C@@H]1CC1=NOC2(CCOCC2)C1 [Example 1.37, (2R,3R,4S,5R,6R)-6-((1,8-dioxa-2-azaspiro[4.5]dec-2-en-3-yl)methyl)-4-(4-(4-chloro-2,3-difluorophenyl)-1H-1,2,3-triazol-1-yl)-2-(hydroxymethyl)-5-methoxytetrahydro-2H-pyran-3-ol]",4600,120
"CO[C@@H]1[C@@H](n2cc(-c3cc(F)c(F)c(F)c3)nn2)[C@@H](O)[C@@H](CO)O[C@@H]1CC1=NOC2(CCC(=O)CC2)C1 [Example 1.66, 3-(((2R,3R,4S,5R,6R)-5-hydroxy-6-(hydroxymethyl)-3-methoxy-4-(4-(3,4,5-trifluorophenyl)-1H-1,2,3-triazol-1-yl)tetrahydro-2H-pyran-2-yl)methyl)-1-oxa-2-azaspiro[4.5]dec-2-en-8-one]",2700,250
"CO[C@@H]1[C@@H](n2cc(-c3ccc(C)c(F)c3F)nn2)[C@@H](O)[C@@H](CO)O[C@@H]1CC1=NO[C@]2(CC[C@H](C(C)(C)O)CC2)C1 [Example 1.62, (2R,3R,4S,5R,6R)-4-(4-(2,3-difluoro-4-methylphenyl)-1H-1,2,3-triazol-1-yl)-2-(hydroxymethyl)-6-(((5r,8R)-8-(2-hydroxypropan-2-yl)-1-oxa-2-azaspiro[4.5]dec-2-en-3-yl)methyl)-5-methoxytetrahydro-2H-pyran-3-ol]",4600,190
"CO[C@@H]1[C@@H](n2cc(-c3cc(F)c(F)c(F)c3)nn2)[C@@H](O)[C@@H](CO)O[C@@H]1CC1=NO[C@]2(CC[C@H](NC(=O)OC(C)(C)C)CC2)C1 [Example 1.15, tert-butyl ((5r,8R)-3-(((2R,3R,4S,5R,6R)-5-hydroxy-6-(hydroxymethyl)-3-methoxy-4-(4-(3,4,5-trifluorophenyl)-1H-1,2,3-triazol-1-yl)tetrahydro-2H-pyran-2-yl)methyl)-1-oxa-2-azaspiro[4.5]dec-2-en-8-yl)carbamate]",1100,35
"CO[C@@H]1[C@@H](n2cc(-c3cc(F)c(F)c(F)c3)nn2)[C@@H](O)[C@@H](CO)O[C@@H]1CC1=NO[C@]2(CC[C@H](C(C)C)CC2)C1 [Example 1.27, (2R,3R,4S,5R,6R)-2-(hydroxymethyl)-6-(((5r,8R)-8-isopropyl-1-oxa-2-azaspiro[4.5]dec-2-en-3-yl)methyl)-5-methoxy-4-(4-(3,4,5-trifluorophenyl)-1H-1,2,3-triazol-1-yl)tetrahydro-2H-pyran-3-ol]",18800,1100
"Cc1ccc(-c2cn([C@H]3[C@@H](O)[C@@H](CO)O[C@H](CC4=NOC5(CCOCC5)C4)[C@@H]3O)nn2)c(F)c1F [Example 1.02, (2R,3R,4R,5R,6R)-2-((1,8-dioxa-2-azaspiro[4.5]dec-2-en-3-yl)methyl)-4-(4-(2,3-difluoro-4-methylphenyl)-1H-1,2,3-triazol-1-yl)-6-(hydroxymethyl)tetrahydro-2H-pyran-3,5-diol]",5200,84
"CO[C@@H]1[C@@H](n2cc(-c3ccc(Cl)c(F)c3F)nn2)[C@@H](O)[C@@H](CO)O[C@@H]1CC1=NOC2(CCN(C(=O)OC(C)(C)C)C2)C1 (mixture of isomers) [Example 1.79, tert-butyl (RS)-3-(((2R,3R,4S,5R,6R)-4-(4-(4-chloro-2,3-difluorophenyl)-1H-1,2,3-triazol-1-yl)-5-hydroxy-6-(hydroxymethyl)-3-methoxytetrahydro-2H-pyran-2-yl)methyl)-1-oxa-2,7-diazaspiro[4.4]non-2-ene-7-carboxylate]",4800,490
"CO[C@@H]1[C@@H](n2cc(-c3cc(F)c(C)c(F)c3)nn2)[C@@H](O)[C@@H](CO)O[C@@H]1CC1=NOC2(CCCCC2)C1 [Example 1.21, (2R,3R,4S,5R,6R)-6-((1-oxa-2-azaspiro[4.5]dec-2-en-3-yl)methyl)-4-(4-(3,5-difluoro-4-methylphenyl)-1H-1,2,3-triazol-1-yl)-2-(hydroxymethyl)-5-methoxytetrahydro-2H-pyran-3-ol]",11400,110
"CO[C@@H]1[C@@H](n2cc(-c3ccc(C)c(F)c3F)nn2)[C@@H](O)[C@@H](CO)O[C@@H]1CC1=NO[C@]2(CC[C@H](C#N)CC2)C1 [Example 1.57, (5r,8R)-3-(((2R,3R,4S,5R,6R)-4-(4-(2,3-difluoro-4-methylphenyl)-1H-1,2,3-triazol-1-yl)-5-hydroxy-6-(hydroxymethyl)-3-methoxytetrahydro-2H-pyran-2-yl)methyl)-1-oxa-2-azaspiro[4.5]dec-2-ene-8-carbonitrile]",530,41
"CO[C@@H]1[C@@H](n2cc(-c3ccc(C)c(F)c3F)nn2)[C@@H](O)[C@@H](CO)O[C@@H]1CC1=NOC2(CCCCC2)C1 [Example 1.14, (2R,3R,4S,5R,6R)-6-((1-oxa-2-azaspiro[4.5]dec-2-en-3-yl)methyl)-4-(4-(2,3-difluoro-4-methylphenyl)-1H-1,2,3-triazol-1-yl)-2-(hydroxymethyl)-5-methoxytetrahydro-2H-pyran-3-ol]",2100,78
"CO[C@@H]1[C@@H](n2cc(-c3cc(F)c(F)c(F)c3)nn2)[C@@H](O)[C@@H](CO)O[C@@H]1CC1=NOC2(CCC(C(C)C)CC2)C1 (stereo partly drawn) [Example 1.25, (2R,3R,4S,5R,6R)-2-(hydroxymethyl)-6-((8-isopropyl-1-oxa-2-azaspiro[4.5]dec-2-en-3-yl)methyl)-5-methoxy-4-(4-(3,4,5-trifluorophenyl)-1H-1,2,3-triazol-1-yl)tetrahydro-2H-pyran-3-ol]",11100,1300

# More lines, now with the values ahead:
IC50 [1] [nM],IC50 [2] [nM],SMILES
3700,37,"Cc1ccc(-c2cn([C@H]3[C@@H](O)[C@@H](CO)O[C@H](CC4=NOC5(CCCCC5)C4)[C@@H]3OCC(=O)O)nn2)c(F)c1F [Example 2.25, 2-(((2R,3R,4S,5R,6R)-2-((1-oxa-2-azaspiro[4.5]dec-2-en-3-yl)methyl)-4-(4-(2,3-difluoro-4-methylphenyl)-1H-1,2,3-triazol-1-yl)-5-hydroxy-6-(hydroxymethyl)tetrahydro-2H-pyran-3-yl)oxy)acetic acid]"
1700,74,"CO[C@@H]1[C@@H](n2cc(-c3ccc(C)c(F)c3F)nn2)[C@@H](O)[C@@H](CO)O[C@@H]1CN1CC2(CCCCC2)N=C1C [Example 4.03, (2R,3R,4S,5R,6R)-4-(4-(2,3-difluoro-4-methylphenyl)-1H-1,2,3-triazol-1-yl)-2-(hydroxymethyl)-5-methoxy-6-((2-methyl-1,3-diazaspiro[4.5]dec-1-en-3-yl)methyl)tetrahydro-2H-pyran-3-ol]"
2600,390,"CCC(CC)NC1CCC2(CC1)CC(C[C@H]1O[C@H](CO)[C@H](O)[C@H](n3cc(-c4cc(F)c(F)c(F)c4)nn3)[C@H]1OC)=NO2 (stereo partly drawn) [Example 2.14, (2R,3R,4S,5R,6R)-2-(hydroxymethyl)-5-methoxy-6-((8-(pentan-3-ylamino)-1-oxa-2-azaspiro[4.5]dec-2-en-3-yl)methyl)-4-(4-(3,4,5-trifluorophenyl)-1H-1,2,3-triazol-1-yl)tetrahydro-2H-pyran-3-ol]"
640,17,"CCOC(=O)N[C@H]1CC[C@]2(CC1)CC(C[C@H]1O[C@H](CO)[C@H](O)[C@H](n3cc(-c4ccc(C)c(F)c4F)nn3)[C@H]1OC)=NO2 [Example 2.09, ethyl ((5r,8R)-3-(((2R,3R,4S,5R,6R)-4-(4-(2,3-difluoro-4-methylphenyl)-1H-1,2,3-triazol-1-yl)-5-hydroxy-6-(hydroxymethyl)-3-methoxytetrahydro-2H-pyran-2-yl)methyl)-1-oxa-2-azaspiro[4.5]dec-2-en-8-yl)carbamate]"
1700,390,"CO[C@@H]1[C@@H](n2cc(-c3cc(F)c(F)c(F)c3)nn2)[C@@H](O)[C@@H](CO)O[C@@H]1CC1=NOC2(CCC(N3CCOCC3)CC2)C1 (stereo partly drawn) [Example 2.19, (2R,3R,4S,5R,6R)-2-(hydroxymethyl)-5-methoxy-6-((8-morpholino-1-oxa-2-azaspiro[4.5]dec-2-en-3-yl)methyl)-4-(4-(3,4,5-trifluorophenyl)-1H-1,2,3-triazol-1-yl)tetrahydro-2H-pyran-3-ol]"
6700,80,"Cc1ccc(-c2cn([C@H]3[C@@H](O)[C@@H](CO)O[C@H](CC4=NOC5(CCOCC5)C4)[C@@H]3OCC(=O)O)nn2)c(F)c1F [Example 2.24, 2-(((2R,3R,4S,5R,6R)-2-((1,8-dioxa-2-azaspiro[4.5]dec-2-en-3-yl)methyl)-4-(4-(2,3-difluoro-4-methylphenyl)-1H-1,2,3-triazol-1-yl)-5-hydroxy-6-(hydroxymethyl)tetrahydro-2H-pyran-3-yl)oxy)acetic acid]"
5100,700,"CO[C@@H]1[C@@H](n2cc(-c3cc(F)c(F)c(F)c3)nn2)[C@@H](O)[C@@H](CO)O[C@@H]1CC1=NO[C@]2(CC[C@@H](O)CC2)C1 [Example 2.02, (5s,8S)-3-(((2R,3R,4S,5R,6R)-5-hydroxy-6-(hydroxymethyl)-3-methoxy-4-(4-(3,4,5-trifluorophenyl)-1H-1,2,3-triazol-1-yl)tetrahydro-2H-pyran-2-yl)methyl)-1-oxa-2-azaspiro[4.5]dec-2-en-8-ol]"
